Test results from patent US20150160193A1, “TUMOR CELL ISOLATION/PURIFICATION PROCESS AND METHODS FOR USE THEREOF” (DIATECH ONCOLOGY, priority 2012, published 2015).
Like-named read-outs stand apart in the source and are kept apart here.

Tests used:
[1] = system: Purified breast cancer cells from 67 patient (Pt) biopsies; test: MiCK assay of drug-induced apoptosis, breast cancer specimens; format: cell-based, human; conditions: for % >1: share of samples with KU >1; for % >3: share of samples with KU >3; for Mean Difference (95% CI) of KU vs Mitox: drug minus Mitox; for Mean Difference (95% CI) of KU vs Doxo: paired t-test, drug minus Doxo; for Mean Difference (95% CI) of KU vs Carbo: drug minus Carbo
Description: Apoptosis(KU)=(VmaxDrug Candidate Treated−VmaxControl)×60×X/(ODcontrol−ODblank)
Within 24 to 48 hours of collection, the specimen was minced, digested with 0.25% trypsin and 0.08% DNase for 1-2 hours at 37 C.°, and then filtered through a 100 micrometer cell strainer. When necessary, non-viable cells were removed by density gradient centrifugation. The cell suspension was then incubated for 30 min at 37° C. in a tissue culture flask to remove macrophages by adherence. For epithelial tumors lymphocytes were removed by 30 minute incubation with CD2 antibody conjugated magnetic beads for T lymphocytes and CD19 antibody conjugated magnetic beads for B lymphocytes. Remaining macrophages were removed, if necessary, using CD14 antibody conjugated magnetic beads. The final cell suspension was plated into a 96-well half-area plate, 120 microliter aliquot per well. The plate was incubated overnight at 37° C. with 5% carbon dioxide humidified atmosphere. 5×10^4 to 1.5×10^5 cells were seeded per well depending on the cell volume to give adequate well-bottom coverage.
Within 24 to 48 hours of collection, the specimen was treated as follows in order to purify and isolate cells from solid tumors: • Take the specimen out of the transport tube. • Put in a petri dish in 13 ml of PBS+high concentration of antibiotics (200 units/ml Penicillin+200 μg/ml streptomycin) and take measurements and picture of the specimen. […] In that case, one may make the determination to do a “pre-filtration” using sterile gauze over a 50 ml tube. Then proceed with the cell strainer filtration process referenced above. • Centrifuge the filtered cell suspension 1500 RPM 5 min • Discard the supernatant. To the pellet, add 5 ml of red blood cell lysis solution (standard NH4Cl containing lysis solution: Nh4Cl0.15M+KHCO3 10 mM+EDTA-4Na 0.1 mM, pH 7.2), incubate 2-3 min and add 5 ml of RPMI 10% FBS. • Centrifuge 5 min 1500 RPM. Resuspend the pellet in RPMI 10% FBS (1-10 ml depending on the pellet size). • Collect the second fraction in the enzyme and repeat the steps above. • Check the viability of all fractions and pool. Do a cytospin stain with Wright Giemsa to verify the cell content of the population. NOTE: this is done numerous times during the process of purification. • 3) When necessary, non-viable cells were removed by density gradient centrifugation. • Density gradient centrifugation (optiprep): first layer=2 ml cells+4.45 ml optiprep 40% in RPMI, second layer=optiprep 22.5% in RPMI, 3rd layer=0.5 ml of RPMI. Centrifuge at 2000 RPM for 20 min • Collect the viable cell layer, add 10 ml of RPMI 10% FBS, centrifuge at 1500 RPM for 5 min • Resuspend the pellet in RPMI 10% FBS (volume depends on the pellet size and on the next step required). • If mucin is present in the specimen: resuspend the pellet in 10 ml of PBS+20 mM DTT and incubate at 4° C. for 30 min to disintegrate the mucin. Wash with RPMI 1500 rpm for 5 min Resuspend the pellet in RPMI 10% FBS. • If the specimen is highly necrotic with presence of debris: Percoll 20% in HBSS, centrifuge at 800×g for 10 min • 4) The cell suspension was then incubated for 20 min at 37° C. in a tissue culture flask to remove macrophages by adherence. • The size and quantity of the flask and the volume used depends on the amount of cells.

[2] = system: neoplastic cells collected from spleen and abdominal tumor biopsy specimens; test: MiCK assay, patient specific cancer cell testing (Example 10); format: cell-based, human; conditions: person, tumor of unknown primary; for Max Resp. (KU): maximum apoptotic response over the concentrations tested; for efficacy for this patient, in words: single agents
Description: The experiments were conducted on neoplastic cells collected from spleen and abdominal tumor biopsy specimens from a person. The tumor specimens were of an unknown primary. The experiment consisted of using a MiCK assay, according to the present disclosure, to test the effectiveness of 37 potential anti-cancer drugs, combinations of these drugs, and various concentrations of these drugs.
Apoptotic readings greater than 5.0KU in the MiCK assay are considered to be highly sensitive and are associated with a good clinical response. […] It should be noted that the alkylating agents cyclophosphamide and ifosfamide require hepatic metabolic transformation to their active metabolite, 4HC and 4HI respectively, and therefore cannot be tested directly in vitro. For the MiCK assay their active metabolites, 4HC and 4HI respectively were used.

[3] = KU compared per patient, % of 24 patients
[4] = kinetic units of apoptosis, mean over N patient samples (at least 9 per drug)
[5] = kinetic units of apoptosis, median over N patient samples
[6] = KU compared per patient, % of 34 patients

For N.N.O=C([O-])C1(C(=O)[O-])CCC1.[Pt+2] [Carbo, Carboplatin], the “Carbo = Cisplatin +/− 0.57 and both > 1” value [1, 3] was “(17%)”, the “Carbo > Cisplatin by more than 0.57 and Carbo > 1” value [1, 3] was “(8%)” and the “Cisplatin and Carbo both < 1” value [1, 3] was “(17%)”. The “KU Mean” value [1, 4] was 1.6 KU, the “KU Median” value [1, 5] was 1.6 KU and the “% >1” value [1] was 67%. For the same compound, the “% >3” value [1] was 13% and the “Max Resp. (KU)” value [2] was 6.0 KU.

COc1cccc2c1C(=O)c1c(O)c3c(c(O)c1C2=O)C[C@@](O)(C(=O)CO)C[C@@H]3O[C@H]1C[C@H](N)[C@@H](O)[C@H](C)O1 [Epi, Epirubicin] was tested, and the “Doxo and Epi < 1” value [1, 6] was 1/34 (3%), the “Epi = Doxo +/− 0.57 and both > 1” value [1, 6] was 22/34 (65%) and the “Epi > Doxo by more than 0.57 and Epi > 1” value [1, 6] was 6/34 (18%). For the same compound, the “KU Mean” value [1, 4] was 2.5 KU, the “KU Median” value [1, 5] was 2.1 KU and the “Mean Difference (95% CI) of KU vs Mitox” value ([1]; patient pairwise comparison) was 0.83 KU. The “Mean Difference (95% CI) of KU vs Doxo” value ([1]; patient pairwise comparison) was 0.37 KU, the “Mean Difference (95% CI) of KU vs Doxo” value ([1]; patient pairwise comparison, listed as epirubicin) was “APOP>doxorubicin” and the “Max Resp. (KU)” value [2] was 3.8 KU.

With CC[C@]1(O)C[C@H]2CN(CCc3c([nH]c4ccccc34)[C@@](C(=O)OC)(c3cc4c(cc3OC)N(C=O)[C@H]3[C@@](O)(C(=O)OC)[C@H](OC(C)=O)[C@]5(CC)C=CCN6CC[C@]43[C@@H]65)C2)C1 [Vincristine, vincristine] the “KU Mean” value [1, 4] was 1.1 KU, the “KU Median” value [1, 5] was 1.0 KU and the “Max Resp. (KU)” value [2] was 0.9 KU.

For COc1cccc2c1C(=O)c1c(O)c3c(c(O)c1C2=O)C[C@@](O)(C(=O)CO)C[C@@H]3O[C@H]1C[C@H](N)[C@H](O)[C@H](C)O1 [Doxo, doxorubicin], the “Doxo > Doxil + 0.57” value ([1]; KU compared per patient, % of 9 patients) was 4/9 (44%), the “Doxo > Epi + 0.57” value [1, 6] was 3/34 (9%) and the “KU Mean” value [1, 4] was 1.9 KU. The “KU Median” value [1, 5] was 1.6 KU, the “Mean Difference (95% CI) of KU vs Doxil” value ([1]; patient pairwise comparison, drug minus Doxil) was 0.56 (−0.07 to 1.18) KU and the “Mean Difference (95% CI) of KU vs Mitox” value ([1]; patient pairwise comparison) was 0.63 KU. The “Max Resp. (KU)” value [2] was 3.5 KU.

In the case of N.N.[Cl][Pt][Cl] [Cisplatin], the “Cisplatin > Carbo + 0.57” value [1, 3] is reported as “(58%)”, the “KU Mean” value [1, 4] is reported as 2.2 KU and the “KU Median” value [1, 5] is reported as 2.3 KU. For the same compound, the “Mean Difference (95% CI) of KU vs Carbo” value ([1]; patient pairwise comparison) was 0.88 KU, the “Mean Difference (95% CI) of KU vs Carbo” value ([1]; patient pairwise comparison, listed as cisplatin) was “APOP>carboplatin” and the “Mean Difference (95% CI) of KU vs Oxali” value ([1]; patient pairwise comparison, drug minus Oxali) was 0.33 KU. The “% >1” value [1] was 78%, the “% >3” value [1] was 22% and the “efficacy for this patient, in words” value [2] was “single drug with the most efficacy”.

With O=P1(NCCCl)OCCCN1CCCl (stereo not shown) [Ifosfamide, ifosfamide] the “Ifosf > Cytox + 0.57” value ([1]; KU compared per patient, % of 11 patients) was “(0%)”, the “KU Mean” value [1, 4] was 1.7 KU and the “KU Median” value [1, 5] was 1.5 KU. The “Max Resp. (KU)” value [2] was 2.6 KU.

For CC[C@]1(O)C[C@@H]2CN(CCc3c([nH]c4ccccc34)[C@@](C(=O)OC)(c3cc4c(cc3OC)N(C)[C@H]3[C@@](O)(C(=O)OC)[C@H](OC(C)=O)[C@]5(CC)C=CCN6CC[C@]43[C@@H]65)C2)C1 [Vnbl, Vinblastine], the “KU Mean” value [1, 4] was 1.8 KU, the “KU Median” value [1, 5] was 1.5 KU and the “Mean Difference (95% CI) of KU vs Vincristine” value ([1]; patient pairwise comparison, drug minus Vincristine) was 0.14 KU. For the same compound, the “Max Resp. (KU)” value [2] was 1.2 KU.

For O=P1(N(CCCl)CCCl)NCCCO1 (stereo not shown) [Cytoxan, cyclophosphamide], the “Cytox = Ifosf +/− 0.57 and both > 1” value [1] was “(55%)”, the “Cytox > Ifosf by more than 0.57 and Cytox > 1” value [1] was “(18%)” and the “Cytox and Ifosf both < 1” value [1] was “(27%)”. For the same compound, the “KU Mean” value [1] was 2.8 KU, the “KU Median” value [1] was 2.6 KU and the “Mean Difference (95% CI) of KU vs Ifosphamide” value [1] was 0.34 (−0.07 to 0.76) KU. The “Max Resp. (KU)” value [2] was 8.4 KU and the “efficacy for this patient, in words” value [2] was “highly effective results”.
